Source: patent publication US11752125B2, “Anti-neuroinflammatory and protective compounds in Achillea fragrantissima” (THE STATE OF ISRAEL MINISTRY OF AGRICULTURE & RURAL …, priority 2013, dated 2023)

Assays:
microglial cells [1] = experiment: Cellular antioxidant activity (ABAP peroxyl radicals) in microglial cells; assay type: cell-based, rat; conditions: ABAP 0.6 mM, dexamethasone at nanomolar concentrations
Procedure: Intracellular ROS production was detected using the non-fluorescent cell permeating compound, 2′7′-dichlorofluorescein diacetate (DCF-DA). DCF-DA is hydrolyzed by intracellular esterases and then oxidized by ROS to a fluorescent compound 2′-7′-DCF. Peroxyl radicals are generated by thermolysis of 2,2′-Azobis(amidinopropane) (ABAP) at physiological temperature. ABAP decomposes at approximately 1.36×10^−6s^−1 at 37° C., producing at most 1×10^12 radicals/mL/s. Microglial cells (130,000 cells/well) were plated in DMEM containing 2% FBS, 8.4 mM HEPES, 2 mM glutamine, 100 U/mL penicillin and 100 μg/mL streptomycin, onto 24 wells plates. In order to measure the ability of achillolide A to enter the cells and prevent the formation of DCF by ABAP-generated peroxyl radicals, cells were incubated for 1 h with achillolide A. Then cells were preloaded with DCF-DA for 30 min, washed twice with PBS, and ABAP (0.6 mM final concentration) was then added. The fluorescence, which indicates ROS levels, was measured in a plate reader with excitation at 485 nm and emission at 520 nm.
Cells were incubated for 1 h with different concentrations of achillolide A. Then, the cells were pre-loaded with DCF-DA for 30 min and washed. ABAP (0.6 mM) was added to the culture and ROS levels were measured at the indicated time points. […]

MMP-9 = MMP-9 activity in LPS-activated microglial cells (gelatin zymography); assay type: cell-based, rat; conditions: LPS 4.5 ng/mL, 24 h
Description: Determination of MMP Activities in Conditioned Media of Microglial Cells. MMP-9 activity was quantified by gelatin zymography.
1. Prepare a primary culture of microglial cells and plate cells as described in “Anti-neuroinflammatory effects of the extract of achillea fragrantissima” 2011. A. Elmann, S. Mordechay, H. Erlank, A. Telerman, M. Rindner, R. Ofir. BMC Complementary and Alternative Medicine. 11:98; 2. Treat cells with freshly diluted AcA of the invention; 3. Activate microglial cells with lipopolysaccharide (LPS, 4.5 nanograms/mL); 4. Measure the levels of MMP-9 by gel zymography as described in “Anti-neuroinflammatory effects of the extract of achillea fragrantissima” 2011. A. Elmann, S. Mordechay, H. Erlank, A. Telerman, M. Rindner, R. Ofir. BMC Complementary and Alternative Medicine. 11:98. 5. […]
Microglial cells were treated with the indicated concentrations of achillolide A, followed by stimulation with LPS (4.5 ng/mL). […] The levels of MMP-9 transcripts were measured by quantitative real-time PCR. The results from three technical replicates were normalized to β-actin and are expressed as relative quantity of MMP-9 transcripts in FIG. 23 B. The results are means±SD of one representative experiment out of three experiments. Cell viability was determined 24 h later by the crystal violet assay. […]

ERK1/2 = experiment: SNP-induced ERK1/2 phosphorylation in N2a cells (ELISA); assay type: cell-based; conditions: concomitant treatment 40 min, total protein not affected
Procedure: N2a cells were treated concomitantly with SNP and TTF for 40 min. Cells were extracted and the levels of phosphorylated or total ERK1/2 were determined by specific ELISA kits. The results are shown in FIG. 19 and are the mean±SEM of one experiment (n=2).

astrocytes = experiment: Cytotoxicity of the compound by itself to astrocytes (LDH); assay type: cell-based; conditions: all concentrations tested, 20 h
Procedure: Astrocytes were re-plated at 24-well poly-D-lysine-coated plastic plates at a density of 1×10^5/well, in DMEM w/o Phenol Red containing 2% FBS, 2 mM glutamine, 100 U/mL penicillin, and 100 μg/mL streptomycin. H2O2 in the presence or absence of TTF were added, and cell viability was determined using a commercial colorimetric assay (Roche Applied Science, Germany) according to the manufacturer's instructions. This assay is based on the measurement of lactate dehydrogenase (LDH) activity released from the cytosol of damaged cells into the incubation medium. The absorbance was measured at 492 nm in a plate reader. The percentage of cytotoxicity was calculated according to the following equation, where the “ATriton-x treated cells” is the maximum releasable LDH in the cells:
Astrocytes were treated with different concentrations of TTF and cell death was determined 20 h later by the LDH method. The results are means±SEM of two experiments (n=10) and are shown in FIG. 2C. ***P<0.001, compared to untreated cells.

microglial cells [2] = experiment: Viability of LPS-activated microglial cells (MTT); assay type: cell-based, rat; conditions: MTT 20 hr later
Procedure: Microglial cells were activated with LPS in the presence or absence of different concentrations of 3,5,4′-trihydroxy-6,7,3′-trimethoxyflavone. Cell viability was determined (using MTT) 20 hr later.

Row | Compound | inhibition of the ABAP-induced increase in ROS fluorescence (microglial cells [1]) [%] | effect on LPS-induced MMP-9 activity (MMP-9) | effect on SNP-induced phosphorylation of ERK1/2 (ERK1/2) | cytotoxicity of the flavonoid by itself to astrocytes (astrocytes) [%] | cytotoxicity to microglial cells (microglial cells [2])
1 | C=C1CCC2=C(CO)C(=O)O[C@H]2/C=C(\C)[C@H](OC(C)=O)CC1=O [achillolide A] | 54 | markedly inhibited |  |  | 
2 | COc1cc(-c2oc3cc(OC)c(OC)c(O)c3c(=O)c2O)ccc1O [TTF, 3,5,4′-trihydroxy-6,7,3′-trimethoxyflavone] |  |  | significantly inhibited | < 11 | not cytotoxic
